One test relates to mouse primary microglia. The test can be described thus: LPS-induced iNOS activation (nitrite, Griess reagent) in primary microglia. Format: cell-based. As to conditions: diapocynin 10 μM, 30 min pretreatment, LPS 24 hr. The procedure: Primary microglia were obtained from 1-2 day old C57/b16 mouse pups. Upon collection, whole brains were kept in ice-cold DMEM-F12 medium containing 10% FBS, 1× sodium pyruvate, 1× NEAAs, 100 units pen/strep, and Q. After collection, the brains were placed in 0.25% trypsin-EDTA and incubated at 37° C., with gentle shaking every 5-10 min. After 30 min, the trypsin was removed, and the brains are washed in warmed medium twice. After washing, medium was added to the brains, and the brains were homogenized using gentle pipetting, starting with a 25 ml pipette and moving to smaller pipette tips as the brains were broken up. When the brains were sufficiently homogenized to a single-cell suspension, they were filtered with a 70 μm nylon filter, which allowed microglia and astrocytes to be collected. The resultant cell suspension was plated in T-75 flasks and allowed to grow for 12-14 days at 37° C., 5% CO2. Microglia were collected using an Easy Sep Magnet (Stemcell Technologies, Vancouver, BC, Canada) (68-69) and plated on poly-D-lysine-coated plates and allowed to attach for 2-4 days before treatment.
Inducible nitric oxide synthase (iNOS or NOS2) activation was assessed by measuring nitrite levels using Griess reagent in a 96-well format (70-72). […] The plate was shaken on a plate shaker for 10 min before being read in a plate reader at 540 nm.
Background: Griess reagent forms a coloured azo dye with nitrite.

For another test, the system named is MPTP-intoxicated mice. The test can be described thus: Open Field locomotor activity in MPTP-injected mice. The class given is in vivo, C57BL/6 mice. Conditions: MPTP- and diapocynin-treated mice; 300 mg/kg oral gavage; 5 days after last MPTP injection; 10 min session. As for the experimental part:
Six- to 8-week-old C57BL/6 mice weighing 24 to 28 g were housed in standard conditions of constant temperature (22±1° C.), humidity (relative, 30%), and a 12-h light/dark cycle. Mice were allowed free access to food and water. Use of the animals and protocol procedures were approved and supervised by the Committee on Animal Care at Iowa State University (Ames, Iowa). For neurodegeneration studies, mice either received diapocynin (300 mg/kg dose) by oral gavage for 1 day (pre-treatment before MPTP administration), 5 days (co-treatment with MPTP), or 7 days (post-treatment after MPTP).
Two types of behavioral tests were performed including an Open Field experiment for testing locomotor activities and a Rotarod experiment to test coordination of movement of mice after MPTP and diapocynin treatment (48, 56). An Open Field activity monitor (model RXYZCM-16; AccuScan, Columbus, Ohio) was used to measure the spontaneous activity of mice. The activity chamber was 40×40×30.5 cm, made of clear PLEXIGLAS® and covered with a PLEXIGLAS® lid with holes for ventilation. Infrared monitoring sensors were located every 2.54 cm along the perimeter (16 infrared beams along each side) and 2.5 cm above the floor. Two additional sets of 16 sensors were located 8.0 cm above the floor on opposite sides. Data were collected and analyzed by a VersaMax Analyzer (model CDA-8, AccuScan). […]

As for `COc1cc(C(C)=O)cc(-c2cc(C(C)=O)cc(OC)c2O)c1O` [diapocynin], the “attenuating LPS-induced iNOS activation, compared with apocynin 100 μM” value in the test with mouse primary microglia is recorded as “just as effective”. Also, in the test with MPTP-intoxicated mice, the “horizontal activity (Open Field)” value was “significantly improved” and the “vertical activity (Open Field)” value is reported as “significantly improved”.
